Reference: patent US20240042046A1, “METHODS AND COMPOUNDS FOR MODULATING HUNTINGTON'S DISEASE” (Design Therapeutics, Inc., priority 2022, published 2024)

What was measured:
Format in all cases: cell-based
[1] = test system: human HTT mRNA, SNP rs362331 T allele, GM09197 fibroblasts; test: Screening of HD molecules in GM09197 fibroblasts, allele-specific HTT mRNA by RT-PCR, T allele; conditions: for Gm09197 Emin 48 hr T Allele (%): Emin = lowest % HTT observed within compound concentration 0.5 nM to 1000 nM; for IC50: Homo sapiens, Fibroblast, 48-hour incubation, T allele HTT mRNA normalized to GAPDH, relative to vehicle
Protocol: (§1) Molecular Biology Toolkit: • qPCR primer probe sets: • RNA input normalization was assessed utilizing human glyceraldehyde 3-phosphate dehydrogenase (hGAPDH) TaqMan assay (ThermoFisher cat #4351370) or Human Cyclophillin ([…]) TaqMan assay (ThermoFisher cat #4351372) • Total HTT detection was assessed utilizing human Htt TaqMan assay (ThermoFisher cat #4331182) • Allele-specific detection of human HTT expression in HD cells containing the SNP rs362331C/T (Exon 50): for each assay, allele-specific probes to detect the SNP variant contained locked nucleic acid bases to improve allele discrimination, as compared to unmodified DNA probes.
(§2) • qPCR was performed using Agpath ID one-step reverse transcriptase polymerase chain reaction (RT-PCR) reagent
(§3) Screening of HD molecules methods: GM09197 and/or GM04022 fibroblasts were cultured in T175 flasks incubated at 37° C. and 5% CO2. Once confluency was reached, the media was removed, the cells were washed with 1×PBS, and cells were dissociated using TrypLE™ Express Enzyme. Media was added to the enzyme and collected into a 15-mL conical tube and centrifuged at 500×g for 5 minutes to pellet the cells. Media and enzyme were aspirated using a serological pipette. Cells were resuspended in fresh media and counted using a Countess 3 Automated Cell Counter. Cells were plated at a density of 15,000 cells/well in a tissue culture-treated polystyrene 96-well dish and incubated at 37° C. and 5% CO2 overnight. The next day, media was removed using an 8-channel aspirator. 200 μL media/well are added back into the plate. The molecules are formulated to 1 mM and are dispensed using a Multidrop™ Pico 8 Digital Dispenser. After a 48-hour incubation with compounds, media was removed from plates, cells were washed with 1×PBS, and cells were lysed in 40 μL per well guanidinium thiocyanate buffer. RNA was isolated and purified in […] glass fiber column plates using chaotropic salts. Human mtHTT, wtHTT, and GAPDH mRNA were measured via RT-PCR using the ThermoFisher QuantStudio™ 7 Flex System in 384-well format. Results of HTT levels were normalized to GAPDH mRNA levels. Normalized HTT mRNA levels were expressed relative to vehicle-treated samples to assess fold change after molecule treatment.
(§4) Emin for each compound is the lowest % HTT concentration observed within a compound concentration of 0.5 nM to 1000 nM.

[2] = test system: human HTT mRNA, SNP rs362331 C allele, GM09197 fibroblasts; test: Screening of HD molecules in GM09197 fibroblasts, allele-specific HTT mRNA by RT-PCR, C allele; conditions: for GM 09197 E min 48 Hr C Allele (%): Emin = lowest % HTT observed within compound concentration 0.5 nM to 1000 nM; for IC50: Homo sapiens, Fibroblast, 48-hour incubation, C allele HTT mRNA normalized to GAPDH, relative to vehicle
Protocol: as §1, §2, §3, §4

[3] = test system: human HTT mRNA, SNP rs362331 T allele, GM04022 fibroblasts; test: Screening of HD molecules in GM04022 fibroblasts, allele-specific HTT mRNA by RT-PCR, T allele; conditions: for GM04022 Emin 48 hr T Allele: Emin = lowest % HTT observed within compound concentration 0.5 nM to 1000 nM; for IC50: Homo sapiens, Fibroblast, 48-hour incubation, T allele HTT mRNA normalized to GAPDH, relative to vehicle
Protocol: as §1, §2, §3, §4

[4] = test system: human HTT mRNA, SNP rs362331 C allele, GM04022 fibroblasts; test: Screening of HD molecules in GM04022 fibroblasts, allele-specific HTT mRNA by RT-PCR, C allele; conditions: Emin = lowest % HTT observed within compound concentration 0.5 nM to 1000 nM
Protocol: as §1, §2
as §3, with “Results of HTT levels were normalized to GAPDH mRNA levels. Normalized HTT mRNA levels were expressed relative to vehicle-treated samples to assess fold change after molecule treatment.” left out

SMILES | Gm09197 Emin 48 hr T Allele (%) [1] | GM 09197 E min 48 Hr C Allele (%) [2] | IC50 [1] [µM] | GM04022 Emin 48 hr T Allele [3] | IC50 [3] [µM] | GM 04022Emin 48 hr C Allele [4] | IC50 [2] [µM]
Cc1noc(C)c1-c1ccc2c(c1)nc(CCc1ccc(OCCOCCOCCOCCOCCOCCOCCOCCOCCOCCOCCOCCOCCOCCOCCOCCNC(=O)CCNC(=O)c3nc(NC(=O)c4cc(NC(=O)CCNC(=O)c5nc(NC(=O)CCCNC(=O)c6cc(NC(=O)c7nc(NC(=O)CCNC(=O)c8cc(NC(=O)c9nccn9C)cn8C)cn7C)cn6C)cn5C)cn4C)cn3C)c(Cl)c1)n2C[C@H](C)N1CCOCC1 [Compound A-54] | B (B is 90% to 80%) | B (B is 90% to 80%) | – | – | – | – | –
CCNC(=O)c1cc2c(-c3cc(S(C)(=O)=O)ccc3Oc3ccc(OCCOCCOCCOCCOCCNC(=O)CCNC(=O)c4nc(NC(=O)c5cc(NC(=O)CCNC(=O)c6nc(NC(=O)CCCNC(=O)c7cc(NC(=O)c8nc(NC(=O)CCNC(=O)c9cc(NC(=O)c%10nccn%10C)cn9C)cn8C)cn7C)cn6C)cn5C)cn4C)cc3F)cn(C)c(=O)c2[nH]1 [Compound A-55] | A (A>90%) | A (A>90%) | – | – | – | – | –
CCS(=O)(=O)Nc1ccc(Oc2ccc(F)cc2F)c(-c2cn(C)c(=O)c3[nH]c(C(=O)Nc4ccc(OCCOCCOCCOCCOCCOCCOCCOCCOCCOCCOCCOCCOCCOCCOCCOCCNC(=O)c5cc(NC(=O)c6nc(NC(=O)[C@H](N)CCNC(=O)c7cc(NC(=O)c8nc(NC(=O)CCNC(=O)c9cc(NC(=O)c%10nccn%10C)cn9C)cn8C)cn7C)cn6C)cn5C)cc4)cc23)c1 [Compound A-36] | A (A>90%) | A (A>90%) | – | – | – | – | –
CCS(=O)(=O)Nc1ccc(Oc2ccc(F)cc2F)c(-c2cn(C)c(=O)c3[nH]c(C(=O)Nc4ccc(OCCOCCOCCOCCOCCOCCOCCOCCOCCNC(=O)CCNC(=O)c5nc(NC(=O)c6cc(NC(=O)CCNC(=O)c7nc(NC(=O)CCCNC(=O)c8cc(NC(=O)c9nc(NC(=O)CCNC(=O)c%10cc(NC(=O)c%11nccn%11C)cn%10C)cn9C)cn8C)cn7C)cn6C)cn5C)cc4)cc23)c1 [Compound A-5] | C (C<80%) | A (A>90%) | 0.0098 | C (C<80%) | 0.002 | A (A>90%) | –
CCNC(=O)c1cc2c(-c3cc(S(C)(=O)=O)ccc3Oc3ccc(OCCOCCOCCOCCOCCOCCOCCOCCOCCNC(=O)CCNC(=O)c4nc(NC(=O)c5cc(NC(=O)CCNC(=O)c6nc(NC(=O)CCCNC(=O)c7cc(NC(=O)c8nc(NC(=O)CCNC(=O)c9cc(NC(=O)c%10nccn%10C)cn9C)cn8C)cn7C)cn6C)cn5C)cn4C)cc3F)cn(C)c(=O)c2[nH]1 [Compound A-3] | C (C<80%) | A (A>90%) | 0.0387 | C (C<80%) | 0.036 | A (A>90%) | –
CCS(=O)(=O)Nc1ccc(Oc2ccc(F)cc2F)c(-c2cn(C)c(=O)c3[nH]c(C(=O)Nc4ccc(OCCOCCOCCOCCOCCOCCOCCOCCOCCOCCOCCOCCOCCOCCOCCOCCNC(=O)c5cc(NC(=O)c6nc(NC(=O)c7cc(NC(=O)[C@@H](N)CCNC(=O)c8nc(NC(=O)CCNC(=O)c9cc(NC(=O)c%10nccn%10C)cn9C)cn8C)cn7C)cn6C)cn5C)cc4)cc23)c1 [Compound A-40] | A (A>90%) | A (A>90%) | – | – | – | – | –
Cc1sc2c(c1C)C(c1ccc(Cl)cc1)=N[C@@H](CC(=O)Nc1ccc(OCCOCCOCCOCCOCCOCCOCCOCCOCCNC(=O)c3cc(NC(=O)c4nc(NC(=O)[C@H](N)CCNC(=O)c5cc(NC(=O)c6nc(NC(=O)CCNC(=O)c7cc(NC(=O)c8nccn8C)cn7C)cn6C)cn5C)cn4C)cn3C)cc1)c1nnc(C)n1-2 [Compound A-35] | B (B is 90% to 80%) | A (A>90%) | – | – | – | – | –
Cn1cc(NC(=O)c2nc(NC(=O)CCNC(=O)c3cc(NC(=O)c4nccn4C)cn3C)cn2C)cc1C(=O)NCCCC(=O)Nc1cn(C)c(C(=O)NCCC(=O)Nc2cc(C(=O)Nc3cn(C)c(C(=O)NCCC(=O)NCCOCCOCCOCCOCCN4C[C@H](Nc5cnn(C)c(=O)c5Br)C[C@H](c5ccccc5)C4)n3)n(C)c2)n1 [Compound A-47] | C (C<80%) | C (C<80%) | > 1 | – | – | – | > 1
Cc1sc2c(c1C)C(c1ccc(Cl)cc1)=N[C@@H](CC(=O)Nc1ccc(OCCOCCOCCOCCOCCOCCOCCOCCOCCNC(=O)c3cc(NC(=O)c4nc(NC(=O)c5cc(NC(=O)[C@@H](N)CCNC(=O)c6nc(NC(=O)CCNC(=O)c7cc(NC(=O)c8nccn8C)cn7C)cn6C)cn5C)cn4C)cn3C)cc1)c1nnc(C)n1-2 [Compound A-37] | B (B is 90% to 80%) | B (B is 90% to 80%) | > 1 | – | – | – | > 1
Cn1cc(NC(=O)c2nc(NC(=O)CCNC(=O)c3cc(NC(=O)c4nccn4C)cn3C)cn2C)cc1C(=O)NCCCC(=O)Nc1cn(C)c(C(=O)NCCC(=O)Nc2cc(C(=O)Nc3cn(C)c(C(=O)NCCC(=O)NCCOCCOCCOCCOCCOCCOCCOCCOCCOCCOCCOCCOCCOCCOCCOCCN4C[C@H](Nc5cnn(C)c(=O)c5Br)C[C@H](c5ccccc5)C4)n3)n(C)c2)n1 [Compound A-49] | A (A>90%) | A (A>90%) | – | – | – | – | –
CCS(=O)(=O)Nc1ccc(Oc2ccc(F)cc2F)c(-c2cn(C)c(=O)c3[nH]c(C(=O)Nc4ccc(OCCOCCOCCOCCOCCOCCOCCOCCOCCOCCOCCOCCOCCOCCOCCOCCNC(=O)CCNC(=O)c5nc(NC(=O)c6cc(NC(=O)CCNC(=O)c7nc(NC(=O)OCCNC(=O)c8cc(NC(=O)c9nc(NC(=O)CCNC(=O)c%10cc(NC(=O)c%11nccn%11C)cn%10C)cn9C)cn8C)cn7C)cn6C)cn5C)cc4)cc23)c1 [Compound A-72] | A (A>90%) | B (B is 90% to 80%) | – | – | – | – | –
Cn1cc(NC(=O)c2nc(NC(=O)CCNC(=O)c3cc(NC(=O)c4nccn4C)cn3C)cn2C)cc1C(=O)NCCCC(=O)Nc1cn(C)c(C(=O)NCCC(=O)Nc2cc(C(=O)Nc3cn(C)c(C(=O)NCCC(=O)NCCOCCOCCOCCOCCOCCOCCOCCOCCOCCOCCOCCOCCOCCOCCOCCOc4ccc(NC(=O)c5cc6c(-c7cc(S(C)(=O)=O)ccc7Oc7ccc(F)cc7F)cn(C)c(=O)c6[nH]5)cc4)n3)n(C)c2)n1 [Compound A-2] | C (C<80%) | A (A>90%) | – | C (C<80%) | – | A (A>90%) | –
Cc1noc(C)c1-c1ccc2c(c1)nc(CCc1ccc(OCCOCCOCCOCCOCCOCCOCCOCCOCCNC(=O)CCNC(=O)c3nc(NC(=O)c4cc(NC(=O)CCNC(=O)c5nc(NC(=O)CCCNC(=O)c6cc(NC(=O)c7nc(NC(=O)CCNC(=O)c8cc(NC(=O)c9nccn9C)cn8C)cn7C)cn6C)cn5C)cn4C)cn3C)c(Cl)c1)n2C[C@H](C)N1CCOCC1 [Compound A-53] | B (B is 90% to 80%) | A (A>90%) | – | – | – | – | –
CCNS(=O)(=O)c1ccc(Oc2ccc(OCCOCCOCCOCCOCCOCCOCCOCCOCCOCCOCCOCCOCCOCCOCCOCCNC(=O)CCNC(=O)c3nc(NC(=O)c4cc(NC(=O)CCNC(=O)c5nc(NC(=O)CCCNC(=O)c6cc(NC(=O)c7nc(NC(=O)CCNC(=O)c8cc(NC(=O)c9nccn9C)cn8C)cn7C)cn6C)cn5C)cn4C)cn3C)cc2F)c(-c2cn(C)c(=O)c3[nH]ccc23)c1 [Compound A-68] | C (C<80%) | A (A>90%) | – | – | – | – | –
CCS(=O)(=O)Nc1ccc(Oc2ccc(F)cc2F)c(-c2cn(C)c(=O)c3[nH]c(C(=O)Nc4ccc(OCCOCCOCCOCCOCCOCCOCCOCCOCCNC(=O)c5cc(NC(=O)c6nc(NC(=O)c7cc(NC(=O)[C@@H](N)CCNC(=O)c8nc(NC(=O)CCNC(=O)c9cc(NC(=O)c%10nccn%10C)cn9C)cn8C)cn7C)cn6C)cn5C)cc4)cc23)c1 [Compound A-39] | B (B is 90% to 80%) | B (B is 90% to 80%) | – | – | – | – | –
